The record followed here is PubChem BioAssay AID1963983 (Molecular Pharmacology Branch, DTP, NCI, 2024).

This experiment deals with 186277-243-T-J2-PDC multi-cell spheroid viability. As to the kind of experiment: Anticancer human tumor 186277-243-T-J2-PDC patient-derived colon adenocarcinoma cell line growth inhibition [PI3K]. Conditions: for viability, T/C: stronger effect = lower value. In a few lines: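 Stroma-containing spheroids: tumor line, pooled-donor HUVEC, hMSC. Treatments: targeted agents with PI3K inhibitors. Dosing: clinically relevant, half-log spacing, 10 microM ceiling without known Cmax. Read-out: cell viability.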

Molecules are shown by their SMILES. “And” between values parts separate entries of the source, which are not always exact repeats. Identical values can stand only once. A value given as a limit tells only on which side of the number the result lay.
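Note: spheroids exposed to compounds for seven days before viability reading.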
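Throughout, for viability, T/C: 100% = DMSO vehicle control viability.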

For the compound `CC(=O)c1c(C)c2cnc(Nc3ccc(N4CCNCC4)cn3)nc2n(C2CCCC2)c1=O`, the viability, T/C was 97.1% [middle of 4 runs] (compound 0.000316 µM); 91.1% [middle of 4 runs] (compound 0.001 µM); 91.5% and 103% and 102% (2×) (compound 0.00316 µM); 105% [middle of 4 runs] (compound 0.01 µM). The IC50 (curve of compound) was more than 100 nM.
